Target: T1, streptavidin (Streptomyces avidinii, UniProt P22629)
T1 construct: purchased Dynal
Test: FITC-biotin binding to a single streptavidin-coated bead in a scanned droplet
Details: 5 μl of 48 nM FITC-biotin plus 5 μl buffer with a single 2.8 μm streptavidin bead; equilibrium after 30 minutes
Protocol: A 5 μl sample of a solution of 48 nM fluorescein isothiocyanate-labelled biotin (FITC-biotin) is added to 5 μl of a solution of buffer containing a single 2.8 μm diameter bead coated with streptavidin (obtained from Dynal). The sample was presented to the instrument for scanning as a 10 μl droplet on the surface of a glass microscope slide. Illumination and light collection was arranged from above the sample. The instrument was set to take fluorescent intensity measurements at 1 μm intervals across the sample in the x-direction with a line-to-line step of 2.2 μm in the y-direction. As the laser spot size was 6 μmm, this allowed for overlap between each scan line. The graphs plot the relative intensity (analogue-to-digital converter or ADC counts) against position (sample number) for several adjacent scan lines. Initially, the FITC-biotin has had insufficient time to diffuse to the streptavidin sites concentrated on the bead. The sample was scanned at intervals over the period of the experiment. It can be readily appreciated that the signal obtained from the illumination will be proportional to the number of molecules of label (FITC-biotin) in the path of the laser at each point. If, as in this case, the label is homogenous throughout the droplet then the signal at each point is proportional to the path length of the laser through the sample. […]

T1 sequence (P22629 25-183): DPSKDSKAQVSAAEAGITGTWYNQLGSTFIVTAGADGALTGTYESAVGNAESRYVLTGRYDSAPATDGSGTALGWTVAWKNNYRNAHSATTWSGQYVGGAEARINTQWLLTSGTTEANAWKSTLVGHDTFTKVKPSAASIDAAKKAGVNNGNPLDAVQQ

Q: Which “PVS/UVS signal ratio at equilibrium” value does the source give for “fluorescein isothiocyanate-labelled biotin [FITC-biotin]” here?
A: approx. 6.1
